According to patent publication US12637465B2, “Pharmaceutically acceptable salts of sepiapterin” (PTC Therapeutics MP, Inc., priority 2018, dated 2026):

Columns and labels:
Format in all cases: physicochemical
[1] = Form change/disproportionation of residual solids by XRPD after suspension in water or Medisca Oral Mix; conditions: for Form change (residual solids, XRPD): RT; for Form of the residual solids in Medisca Oral Mix / Form of the residual solids in water: after 1 hour
Protocol: The kinetic solubility was evaluated for nicotinate, phosphate, L-tartrate, and fumarate salts and/or co-crystals of sepiapterin in water and […] Oral Mix. X-ray powder diffraction (XRPD) was performed for the residual solids to identify form change/disproportionation. Solids were suspended into the media with target conc. of 7 mg/mL (calculated by freebase). […] Oral Mix after 1 hour. […] Oral Mix.

[2] = Solid form stability study of salts and/or co-crystals at 25° C./60% RH and 40° C./75% RH; conditions: for Underwent a form change during the stability testing: 1 and 2 weeks, 25° C./60% RH and 40° C./75% RH
Protocol: The stability of the prepared salts and/or co-crystals was analyzed after 1 and 2 weeks at 25° C. and 60% relative humidity and 40° C. and 75% relative humidity. […] None of the phosphate, tartrate, or nicotinate salts and/or co-crystals underwent a form change during the stability testing, and each of them retained greater than 97% purity over the two weeks of the study. In fact, both the tartrate and nicotinate both retained greater than 99% purity.

[3] = Kinetic solubility in water and Medisca Oral Mix (HPLC solubility, purity and pH of supernatant); conditions: RT; for Purity (area %) of supernatant: for reference only; for Solubility: calculated using freebase, target conc. 7 mg/mL
Protocol: The kinetic solubility was evaluated for nicotinate, phosphate, L-tartrate, and fumarate salts and/or co-crystals of sepiapterin in water and […] Oral Mix. X-ray powder diffraction (XRPD) was performed for the residual solids to identify form change/disproportionation. Solids were suspended into the media with target conc. of 7 mg/mL (calculated by freebase).

[4] = Medisca Oral Mix, 1 hr, listed as nicotinate salt and/or co-crystal
[5] = Medisca Oral Mix, 4 hr, listed as nicotinate salt and/or co-crystal
[6] = Medisca Oral Mix, 24 hr, listed as nicotinate salt and/or co-crystal
[7] = Water, 1 hr, listed as nicotinate salt and/or co-crystal
[8] = Water, 4 hr, listed as nicotinate salt and/or co-crystal
[9] = Water, 24 hr, listed as nicotinate salt and/or co-crystal
[10] = Medisca Oral Mix, 1 hr, listed as phosphate salt and/or co-crystal
[11] = Medisca Oral Mix, 4 hr, listed as phosphate salt and/or co-crystal
[12] = Medisca Oral Mix, 24 hr, listed as phosphate salt and/or co-crystal
[13] = Water, 1 hr, listed as phosphate salt and/or co-crystal
[14] = Water, 4 hr, listed as phosphate salt and/or co-crystal
[15] = Water, 24 hr, listed as phosphate salt and/or co-crystal

C[C@H](O)C(=O)C1=Nc2c(nc(N)[nH]c2=O)NC1 [Nicotinate, sepiapterin]
Form change (residual solids, XRPD) [1, 4]: Yes
Form change (residual solids, XRPD) [1, 5]: Yes
Form change (residual solids, XRPD) [1, 6]: Yes
Form of the residual solids in Medisca Oral Mix ([1]; Medisca Oral Mix): converted to freebase
Form change (residual solids, XRPD) [1, 7]: Yes
Form change (residual solids, XRPD) [1, 8]: Yes
Form change (residual solids, XRPD) [1, 9]: Yes
Form of the residual solids in water [1]: converted to freebase
Stability compared with the other salts and/or co-crystals tested [2]: noticeably more stable than the others
Underwent a form change during the stability testing [2]: None
Form change ([2]; 1 week, 25° C./60% RH): No
Purity (Area %) ([2]; 1 week, 25° C./60% RH): 97.43 Area %
Purity vs. initial (%) ([2]; 1 week, 25° C./60% RH): 100.3%
Form change ([2]; 1 week, 40° C./75% RH): No
Purity (Area %) ([2]; 1 week, 40° C./75% RH): 97.30 Area %
Purity vs. initial (%) ([2]; 1 week, 40° C./75% RH): 100.2%
Form change ([2]; 2 weeks, 25° C./60% RH): No
Purity (Area %) ([2]; 2 weeks, 25° C./60% RH): 97.45 Area %
Purity vs. initial (%) ([2]; 2 weeks, 25° C./60% RH): 100.3%
Form change ([2]; 2 weeks, 40° C./75% RH): No
Purity (Area %) ([2]; 2 weeks, 40° C./75% RH): 97.41 Area %
Purity vs. initial (%) ([2]; 2 weeks, 40° C./75% RH): 100.3%
Purity (Area %) ([2]; Initial): 97.16 Area %
Observation ([3]; Medisca Oral Mix, 1 hr): Turbid
Purity (area %) of supernatant [3, 4]: 99.76 area %
pH [3, 4]: 3.1
Observation ([3]; Medisca Oral Mix, 4 hr): Turbid
Purity (area %) of supernatant [3, 5]: 99.60 area %
pH [3, 5]: 3.1
Observation ([3]; Medisca Oral Mix, 24 hr): Turbid
Purity (area %) of supernatant [3, 6]: 97.00 area %
pH [3, 6]: 3.1
Observation ([3]; Water, 1 hr): Turbid
Purity (area %) of supernatant [3, 7]: 98.97 area %
pH [3, 7]: 2.1
Observation ([3]; Water, 4 hr): Turbid
Purity (area %) of supernatant [3, 8]: 99.04 area %
pH [3, 8]: 2.1
Observation ([3]; Water, 24 hr): Turbid
Purity (area %) of supernatant [3, 9]: 96.54 area %
pH [3, 9]: 2.1

C[C@H](O)C(=O)C1=Nc2c(nc(N)[nH]c2=O)NC1 [Phosphate, sepiapterin]
Form change (residual solids, XRPD) [1, 10]: Yes**
Form change (residual solids, XRPD) [1, 11]: Yes**
Form change (residual solids, XRPD) [1, 12]: Yes**
Form of the residual solids in Medisca Oral Mix ([1]; Medisca Oral Mix): converted to freebase
Form change (residual solids, XRPD) [1, 13]: Yes
Form change (residual solids, XRPD) [1, 14]: Yes
Form change (residual solids, XRPD) [1, 15]: Yes
Form of the residual solids in water [1]: converted to freebase
Stability compared with the other salts and/or co-crystals tested [2]: noticeably more stable than the others
Underwent a form change during the stability testing [2]: None
Form change ([2]; 1 week, 25° C./60% RH): No
Purity (Area %) ([2]; 1 week, 25° C./60% RH): 95.35 Area %
Purity vs. initial (%) ([2]; 1 week, 25° C./60% RH): 98.6%
Form change ([2]; 1 week, 40° C./75% RH): No
Purity (Area %) ([2]; 1 week, 40° C./75% RH): 95.91 Area %
Purity vs. initial (%) ([2]; 1 week, 40° C./75% RH): 99.1%
Form change ([2]; 2 weeks, 25° C./60% RH): No
Purity (Area %) ([2]; 2 weeks, 25° C./60% RH): 95.87 Area %
Purity vs. initial (%) ([2]; 2 weeks, 25° C./60% RH): 99.1%
Form change ([2]; 2 weeks, 40° C./75% RH): No
Purity (Area %) ([2]; 2 weeks, 40° C./75% RH): 94.50 Area %
Purity vs. initial (%) ([2]; 2 weeks, 40° C./75% RH): 97.7%
Purity (Area %) ([2]; Initial): 96.75 Area %
Observation ([3]; Medisca Oral Mix, 1 hr): Turbid
Solubility [3, 10]: 2500 µg/mL
Purity (area %) of supernatant [3, 10]: 99.23 area %
pH [3, 10]: 3.1
Observation ([3]; Medisca Oral Mix, 4 hr): Turbid
Solubility [3, 11]: 3200 µg/mL
Purity (area %) of supernatant [3, 11]: 98.95 area %
pH [3, 11]: 3.1
Observation ([3]; Medisca Oral Mix, 24 hr): Turbid
Purity (area %) of supernatant [3, 12]: 87.63 area %
pH [3, 12]: 3.1
Observation ([3]; Water, 1 hr): Turbid
Purity (area %) of supernatant [3, 13]: 89.92 area %
pH [3, 13]: 2.1
Observation ([3]; Water, 4 hr): Turbid
Purity (area %) of supernatant [3, 14]: 89.52 area %
pH [3, 14]: 2.1
Observation ([3]; Water, 24 hr): Turbid
Purity (area %) of supernatant [3, 15]: 82.64 area %
pH [3, 15]: 2.1
